Consider two compounds from patent US20250092013A1, “PRODRUGS OF AXITINIB” (OCULAR THERAPEUTIX, INC., priority 2021, published 2025).

≈ marks a conversion by molar mass, not a printed value. Where only a bound is given, the exact number is not on record here.

Series [1] in a line: Solubility testing in phosphate buffer saline pH 7.4 (HPLC with calibration curve). Format: physicochemical. As to the method: Solubility testing was performed with the following test items and conditions: • Test items: axitinib (99.99% purity by HPLC); axitinib-N-succinoyloxymethyl prodrug (94.3% purity by HPLC); • Test media: phosphate buffer saline pH 7.4 • Incubation condition: 24 hour at 22° C. with continuous shaking • Test concentration: 1 mg/mL • Data analysis: Solubility of test item was determined by HPLC analysis with calibration curve

For series [2] the following is noted: cited from earlier work.

Usually Solubility stands for the concentration that dissolves in the medium under given conditions. A word on the solubility: it is the concentration that dissolves in the medium under given conditions.

In turn, `CNC(=O)c1ccccc1Sc1ccc2c(/C=C/c3ccccn3)nn(COC(=O)CCC(=O)O)c2c1` [N-Succinoyloxymethyl Prodrug, axitinib-N-succinoyloxymethyl] showed a Solubility in series [1] (phosphate buffer saline pH 7.4, 24 hour at 22° C. with continuous shaking, test concentration 1 mg/mL) of 0.2174 mg/mL (≈ 421 µM). In addition, the “solubility of the prodrug enhanced (fold vs axitinib)” value in series [1] (relative to literature reported solubility of axitinib (about 0.2 mcg/mL)) is reported as roughly 1100 ×.

For the compound `CNC(=O)c1ccccc1Sc1ccc2c(/C=C/c3ccccn3)n[nH]c2c1` [Axitinib, axitinib], the literature reported solubility result in series [2] is listed as “about 0.2 mcg/mL”. The solubility at 24 h in series [1] (22 °C, pH 7.4, aqueous buffer, thermodynamic from solid) was less than 0.00078 mg/mL.
